The record followed here is patent US20220009874A1, “CATALYTIC SYNTHESIS OF ANTI-UV AND ANTIOXIDANT CONJUGATED 8-8 DIMERS IN A GREEN SOLVENT” (INSTITUT DES SCIENCES ET INDUSTRIES DU VIVANT ET DE …, priority 2018, published 2022).

Each structure is given as a SMILES string.

This data set in a line: UV absorbance of the dimers in ethanol compared with sinapoyl malate. Conditions: 10 μmol·L^−1 in ethanol; for absorption band: FIG. 1. It is filed as physicochemical. From the text: a. […] A change of the R3 radical can also affect these properties (FIG. 11).

For the molecule `CCOC(=O)C(=Cc1cc(OC)c(O)c(OC)c1)C(=Cc1cc(OC)c(O)c(OC)c1)C(=O)OCC` [ethyl β-β disinapate], the absorption band is 200-400 nm. For the same molecule, under “FIGS. 1 to 16”, the “anti-UV properties (UV absorbance) compared with sinapoyl malate” value was “higher anti-UV properties than sinapoyl malate”.
For the molecule `COc1cc(/C=C/C(=O)OC(CC(=O)O)C(=O)O)cc(OC)c1O` (stereo not drawn) [sinapoyl malate, reference compound], the absorption band was 200-370 nm.
